Test results taken from ChEMBL document CHEMBL5050844 (2019).

Tests used:
[1] = Induction of allogenic human T cell activation at 3 uM assessed fold increase in cell proliferation; format: functional, T cell line
[2] = Induction of anti-CD3/CD28 antibodies-stimulated human T cell activation at 4 uM assessed fold increase in IL-2 secretion measured by ELISA assay; format: functional, T cell line
[3] = Induction of anti-CD3/CD28 antibodies-stimulated human anergic T cell activation at 1.11 uM assessed fold increase in IFN-gamma secretion measured by ELISA assay; format: functional, T cell line
[4] = Induction of anti-CD3/CD28 antibodies-stimulated human CD8+ T cell activation at 10 uM assessed fold increase in cell proliferation measured by flow cytometry analysis; format: functional, T cell line
[5] = Induction of anti-CD3/CD28 antibodies-stimulated human T cell activation at 1.11 uM assessed fold increase in GM-CSF secretion measured by ELISA assay; format: functional, T cell line
[6] = Induction of allogenic human T cell activation at 10 uM assessed fold increase in cell proliferation; format: functional, T cell line
[7] = Induction of anti-CD3/CD28 antibodies-stimulated human T cell activation at 1.11 uM assessed fold increase in TNF-alpha secretion measured by ELISA assay; format: functional, T cell line
[8] = Induction of activation of human CD56+ CD3- NK cells co-cultured with human K562 cells in 1:1 ratio and assessed as increase in TNF-alpha secretion at 0.625 uM measured by ELISA assay; format: functional, Natural killer cell
[9] = Induction of anti-CD3/CD28 antibodies-stimulated human CD4+ T cell activation at 10 uM assessed fold increase in cell proliferation measured by flow cytometry analysis; format: functional, T cell line
[10] = Induction of anti-CD3 antibodies-stimulated human T cell activation at 1 uM assessed fold increase in IL-2 secretion measured by ELISA assay; format: functional, T cell line; note: reference of the scale not given here
[11] = Induction of anti-CD3 antibodies-stimulated human CD4+ T cell activation at 10 uM assessed fold increase in CD69 expression measured by flow cytometry analysis; format: functional, T cell line; note: reference of the scale not given here
[12] = Induction of anti-CD3 antibodies-stimulated human exhausted T cell activation assessed fold increase in GM-CSF secretion measured by ELISA assay; format: functional, T cell line; note: reference of the scale not given here
[13] = Induction of activation of human CD56+ CD3- NK cells co-cultured with human K562 cells in 1:1 ratio and assessed as increase in IFN-gamma secretion at 10 uM measured by ELISA assay; format: functional, Natural killer cell
[14] = Induction of anti-CD3/CD28 antibodies-stimulated human T cell activation at 1.11 uM assessed fold increase in IFN-gamma secretion measured by ELISA assay; format: functional, T cell line
[15] = Induction of anti-CD3 antibodies-stimulated human CD8+ T cell activation at 10 uM assessed fold increase in cell proliferation measured by flow cytometry analysis; format: functional, T cell line; note: reference of the scale not given here
[16] = Induction of anti-CD3/CD28 antibodies-stimulated human T cell activation at 4 uM assessed fold increase in CD25 expression measured by ELISA assay; format: functional, T cell line
[17] = Induction of activation of human CD56+ CD3- NK cells co-cultured with human K562 cells in 1:1 ratio and assessed as increase in TNF-alpha secretion at 2.5 uM measured by ELISA assay; format: functional, Natural killer cell
[18] = Induction of anti-CD3 antibodies-stimulated human exhausted CD4+ T cell activation assessed fold increase in CTLA4 expression measured by flow cytometry analysis; format: functional, T cell line; note: reference of the scale not given here
[19] = Induction of anti-CD3 antibodies-stimulated human T cell activation at 10 uM assessed fold increase in TNF-alpha secretion measured by ELISA assay; format: functional, T cell line; note: reference of the scale not given here
[20] = Induction of anti-CD3 antibodies-stimulated human T cell activation at 1.11 uM assessed fold increase in IFN-gamma secretion measured by ELISA assay; format: functional, T cell line; note: reference of the scale not given here
[21] = Induction of anti-CD3 antibodies-stimulated human CD8+ T cell activation at 1.11 uM assessed fold increase in cell proliferation measured by flow cytometry analysis; format: functional, T cell line; note: reference of the scale not given here
[22] = Induction of activation of human CD56+ CD3- NK cells co-cultured with human K562 cells in 1:1 ratio and assessed as increase in TNF-alpha secretion at 10 uM measured by ELISA assay; format: functional, Natural killer cell
[23] = Induction of anti-CD3/CD28 antibodies-stimulated human T cell activation at 10 uM assessed fold increase in IFN-gamma secretion measured by ELISA assay; format: functional, T cell line
B cell = experiment: Induction of anti-IgM-stimulated human CD20+ B cell activation at 10 to 1000 uM assessed as increase in CD69 expression measured as mean fluorescence intensity AUC by flow cytometry analysis; format: functional, cell-based; details: dose 10-1000 µM
[24] = Induction of anti-CD3/CD28 antibodies-stimulated human CD4+ T cell activation at 1.11 uM assessed fold increase in CD69 expression measured by flow cytometry analysis; format: functional, T cell line
[25] = Induction of anti-CD3/CD28 antibodies-stimulated human T cell activation at 10 uM assessed fold increase in TNF-alpha secretion measured by ELISA assay; format: functional, T cell line
[26] = Induction of anti-CD3 antibodies-stimulated human T cell activation at 8 uM assessed fold increase in IL-2 secretion measured by ELISA assay; format: functional, T cell line; note: reference of the scale not given here
[27] = Induction of anti-CD3 antibodies-stimulated human T cell activation at 1 uM assessed fold increase in CD25 expression measured by ELISA assay; format: functional, T cell line; note: reference of the scale not given here
[28] = Induction of anti-CD3/CD28 antibodies-stimulated human T cell activation at 0.3 uM assessed fold increase in IL-2 secretion measured by ELISA assay; format: functional, T cell line
[29] = Induction of anti-CD3 antibodies-stimulated human T cell activation at 10 uM assessed fold increase in GM-CSF secretion measured by ELISA assay; format: functional, T cell line; note: reference of the scale not given here
[30] = Induction of anti-CD3/CD28 antibodies-stimulated human anergic T cell activation at 0.37 uM assessed fold increase in IFN-gamma secretion measured by ELISA assay; format: functional, T cell line
[31] = Induction of anti-CD3 antibodies-stimulated human CD4+ T cell activation at 1.11 uM assessed fold increase in CD69 expression measured by flow cytometry analysis; format: functional, T cell line; note: reference of the scale not given here
[32] = Induction of activation of human CD56+ CD3- NK cells co-cultured with human K562 cells in 1:1 ratio and assessed as increase in IFN-gamma secretion at 2.5 uM measured by ELISA assay; format: functional, Natural killer cell
[33] = Induction of anti-CD3/CD28 antibodies-stimulated human CD8+ T cell activation at 1.11 uM assessed fold increase in cell proliferation measured by flow cytometry analysis; format: functional, T cell line
[34] = Induction of anti-CD3/CD28 antibodies-stimulated human T cell activation at 10 uM assessed fold increase in GM-CSF secretion measured by ELISA assay; format: functional, T cell line
[35] = Induction of anti-CD3/CD28 antibodies-stimulated human T cell activation at 1 uM assessed fold increase in CD25 expression measured by ELISA assay; format: functional, T cell line
[36] = Induction of anti-CD3/CD28 antibodies-stimulated human CD8+ T cell activation at 10 uM assessed fold increase in CD69 expression measured by flow cytometry analysis; format: functional, T cell line
[37] = Induction of anti-CD3 antibodies-stimulated human exhausted T cell activation assessed fold increase in IFN-gamma secretion measured by ELISA assay; format: functional, T cell line; note: reference of the scale not given here

| Structure (SMILES) | fold change (FC) [1] | fold change (FC) [2] | fold change (FC) [3] | fold change (FC) [4] | fold change (FC) [5] | fold change (FC) [6] | fold change (FC) [7] | fold change (FC) [8] | fold change (FC) [9] | fold change (FC) [10] | fold change (FC) [11] | fold change (FC) [12] | fold change (FC) [13] | fold change (FC) [14] | fold change (FC) [15] | fold change (FC) [16] | fold change (FC) [17] | fold change (FC) [18] | fold change (FC) [19] | fold change (FC) [20] | further results |
| --- | --- | --- | --- | --- | --- | --- | --- | --- | --- | --- | --- | --- | --- | --- | --- | --- | --- | --- | --- | --- | --- |
| C[C@H](Cc1nncn1C)c1cccc(N2Cc3c(ccnc3C3CC3)C2=O)c1 | <=2 | 1.01 | <=2.5 | 3.01 | 2.01 | <=2 | 1.51 | 1.01 | >4 | 0.151 | 1.201 | <=1.4 | 2.01 | <=2 | 3.01 | 1.31 | 1.01 | <=1.4 | <=1.5 | <=2 | fold change (FC) [21]: <=2; fold change (FC) [22]: 2.01; fold change (FC) [23]: 2.01; AUC (B cell): 0.5; fold change (FC) [24]: <=1.2; fold change (FC) [25]: 2.01; fold change (FC) [26]: >=0.201; fold change (FC) [27]: 0.601; fold change (FC) [28]: 1.01; fold change (FC) [29]: 2.01; fold change (FC) [30]: <=2.5; fold change (FC) [31]: <=1.2; fold change (FC) [32]: 1.01; fold change (FC) [33]: <=2; fold change (FC) [34]: >4; fold change (FC) [35]: 1.01; fold change (FC) [36]: 1.201; fold change (FC) [37]: >1.61 |
| C[C@H](Cc1nncn1C)c1cccc(NC(=O)c2cccc(CCO)n2)c1 | <=2 | 2.51 | <=2.5 | 2.01 | <=1.5 | <=2 | <=1.5 | <=1 | 3.01 | 0.051 | 1.201 | <=1.4 | 2.01 | <=2 | <=2 | 1.31 | 1.01 | <=1.4 | <=1.5 | <=2 | fold change (FC) [21]: <=2; fold change (FC) [22]: 1.01; fold change (FC) [23]: >4; AUC (B cell): 1.01; fold change (FC) [24]: <=1.2; fold change (FC) [25]: 1.51; fold change (FC) [26]: 0.151; fold change (FC) [27]: <=0.6; fold change (FC) [28]: 1.01; fold change (FC) [29]: 1.51; fold change (FC) [30]: <=2.5; fold change (FC) [31]: <=1.2; fold change (FC) [32]: 1.01; fold change (FC) [33]: <=2; fold change (FC) [34]: 1.51; fold change (FC) [35]: 1.01; fold change (FC) [36]: <=1.2; fold change (FC) [37]: <=1.4 |
